{"source": "patent US20230149373A1", "about": "“USE OF BROMODOMAIN INHIBITORS FOR TREATMENT OF HUNTINGTON'S DISEASE” (RUMI SCIENTIFIC HOLDINGS, INC., priority 2020, published 2023)", "format_in_all_cases": "cell-based, human", "key": {"[1]": {"system": "HD-56CAG neuruloids", "experiment": "HD neuruloid phenotype reversal (AI-scored phenotypic rescue)", "conditions": "for rescue of HD neuruloids to the WT configuration: FIG. 10; for rescue of HD neuruloids to the WT configuration / rescue of HD neuruloid phenotype, primary screen images: qualitative; for hit call in panel of BRD inhibitors (rescue efficacy above and toxicity below threshold): single concentration of 10 μM, 96 well plates, same hit criteria as primary screen; for rescue of HD neuruloid phenotype, primary screen images: 10 μM, staining DAPI, PAX6, phalloidin", "procedure": "Micropatterned cell culture on chips and neuruloid induction: Micropatterned glass coverslips (CYTOOCHIPS Arena A, Arena 500A, Arena EMB A) were first coated with 10 μg ml^−1 recombinant Laminin-521 (BioLamina, LN521-03) diluted in PBS+/+(Gibco) for 3 h at 37° C. Micropatterns were placed face-up onto a Parafilm that was seated in a 10 cm dish, then 800 μl of laminin solution was added to the micropattern. After 3 h at 37° C., the coated micropattern was transferred to a 35 mm dish with 5 ml of PBS+/+. Laminin was removed with six serial dilutions in PBS+/+(dilution 1:4) before two complete washes in PBS+/+. Then the coated micropattern was kept in PBS+/+ at 37° C. Cells were seeded as follows: cells growing in MEF-CM on culture dish were washed once with PBS−/− (Gibco), then treated with accutase (Stem Cell Technologies) for 5 min. Cells were then triturated with a pipette to ensure single cell suspension and accutase was diluted out with 4× HUESM medium supplemented with 20 ng ml^−1 bFGF and ROCK inhibitor, Y27632 (10 μM; Abcam ab120129). Cells were further diluted with the same medium and 5×10^5 (or as indicated) cells in 3.0 ml of medium were placed over the micropattern in a 35-mm tissue culture dish, then incubated at 37° C. After 3 h, the micropattern in a dish was washed once with PBS+/+. For SB+LDN condition: PBS+/+ was replaced with 3 N medium73 with 10 μM SB431542 (Stemgent 04-0010-10) and 0.2 μM LDN 193189 (Stemgent 04-0019). At days 3 and 5, the medium was replaced with the same fresh medium and incubated at 37° C. until day 7. For SB+BM P4 condition (neuruloid), PBS was replaced with HUESM with 10 μM SB431542 and 0.2 μM LDN 193189. At day 3, the medium was replaced with HUESM with 10 μM SB431542 and BM P4 (50 ng ml^−1 or indicated each experiment). At day 5, the medium was replaced with the same fresh medium then incubated until day 7.\n(§1) Micropatterned cell culture on 96 well plates and imaging: The micropatterned cell culture on chips and neuruloid induction protocol was used with micropatterned 96 well plates (CYTOOPLATES Arena A, Arena 700). The neuruloid induction was modified so that all steps requiring media changes, cell dispensing as well as washes and incubations for immunofluorescence were performed with a EL406 washer/dispense robot. For cell seeding, a volume of 200 μl cell suspension at a density of 0.18M cells per ml was used. Plate imaging was performed with an InCell Analyzer 2000 high-content imager through a 4× lens.\n(§2) A number of libraries consisting of 2080 compounds were screened in 96 well plates with micropatterned glass bottoms. In these plates, each well has around 27 individual neuruloids. During the screen, two plates of WT controls and two plates of HD untreated controls were reserved in order to have enough control data for training the deep neural network for later analysis. Compounds were applied to the test plates at day 0 of differentiation and re-applied at day 3 and day 5 during media change steps. Each compound was applied in a unique well, at a unique concentration of 10 uM. At day 7, plates were fixed and stained for DAPI, PAX6 and Phalloidin. After staining, plates were imaged and individual neuruloids in every well were segmented and labeled before being fed to the specific deep neural network.\nImage analysis: image tiles acquired from micropatterned or plate culture experiments were stitched and background-corrected. A foreground mask was created to detect colonies by thresholding the DAPI channel and calculating alpha shapes in respect to colony size. Each detected colony was extracted from the corrected and stitched image.\nDeep learning for quantification of phenotypic rescue: Multichannel WT and disease organoid images are split into training (70%) and validation (30%) images. A neural network (NN) is then trained on the training data set. The NN is coded using a machine-learning framework such as Pytorch. […]"}, "[2]": {"system": "expanded HTT and total HTT", "experiment": "HTT levels in HD neuruloid lysates, ELISA-based meso scale discovery (MSD) electrochemiluminescence assay", "conditions": "for HTT levels reduction ability (expanded HTT and total HTT): 1 μM and 5 μM, versus DMSO control", "procedure": "We therefore repeated our protocol for the formation of HD neuruloids in two genetic backgrounds: 56CAG and 72CAG and treated with the 5 BRD inhibitors disclosed in FIG. 9 at two concentrations: 1 uM and 5 uM. At the end of the differentiation protocol, neuruloids lysates were frozen and later analyzed for their HTT contents. Both expanded HTT levels and total HTT levels (expanded+regular) were quantified through ELISA-based meso scale discovery (MSD) electrochemiluminescence assay.\nHD neuruloids were created in two genetic backgrounds: 56CAG and 72CAG; and treated with the 5 BRD inhibitors disclosed in FIG. 10 at two concentrations: 1 μM and 5 μM. At the end of the differentiation protocol, neuruloid lysates were analyzed for their HTT contents. Both expanded HTT levels and total HTT levels (expanded+regular) were quantified through ELISA-based meso scale discovery (MSD) electrochemiluminescence assay."}, "[3]": {"system": "HD-56CAG neuruloids", "experiment": "HD neuruloid phenotype reversal (AI-scored phenotypic rescue)", "conditions": "for potency (EC50) in rescuing HD neuruloids: dose-dependent test of BRD9 inhibitors, FIG. 9A"}, "[4]": {"system": "WT-20CAG and HD-56CAG neuruloids", "experiment": "Neuruloid toxicity (autoencoder-based toxicity score)", "procedure": "as §1, §2\nDeep learning for quantification of cytotoxicity: An autoencoder based method was used to asses toxicity. These unsupervised neural networks encode data and compress it in a low dimensional latent representation. The unsupervised nature of this machine learning method has the advantage that the autoencoder learns a representation of the data without any additional information about the data (such as that it is derived from wild type or disease cell lines), and is thus unbiased in estimating the toxicity of compounds. The representation of the data in terms of vectors also has the advantage that differences in the wild type and disease phenotype can be removed from the vector space, since this difference is not relevant in determining toxicity. Toxicity was determined in the following way: First, the difference between wild type and disease is removed from the latent space. Then, the distance from the mean vector of the wild type and disease phenotypes is calculated, and compared to the standard deviation of the wild type and disease phenotypes. This distance is defined as the toxicity."}, "[5]": {"system": "HD-56CAG gastruloids", "experiment": "HD gastruloid SOX17+ area rescue", "conditions": "1 μM; 48 hrs CHIR and Activin", "procedure": "BRD inhibitors were tested to determine whether they were able to rescue another HD phenotype in human gastruloids. When human embryonic stem cell colonies are stimulated for 48 hrs with CHIR and Activin a primitive-streak like population, SOX17+, is induced at the periphery (see FIG. 12a). Moreover, in HD gastruloids made from the HD-56CAG cells, the SOX17+ domain at the periphery is greatly expanded. This effect is even more pronounced when using a null HTT−/− cell line, which supports the findings that the HD mutation is in fact a loss of function mutation in a developmental context, as it phenocopies the absence of the protein.\nGastruloid induction: Using the protocol for coating micropatterned chips. after the final wash in PBS+/+, 8×10^5 cells were seeded on each coverslip in a defined volume of MEF-CM supplemented with 20 ng/ml bFGF (R&D Systems), 10 μM ROCK inhibitor (Y-27632, Abcam), 1× Penicillin-streptomycin (Thermo Fisher Scientific), 100 μg/ml Normocin (Invivogen) and left unperturbed for 10 minutes to ensure homogenous distribution across the patterns. ROCK inhibitor was removed from the medium 3 hours after seeding and cells were induced the following day with 50 ng/ml BM P4 (R&D Systems), 2 μM IWP2 (Stemgent), 6 μM CHIR99021 (EMD Millipore), 100 ng/ml ACTIVIN (R&D Systems) and small molecule treatments. Samples were fixed 48 hours later and analyzed by immunofluorescence."}}, "note": "Entries after “also recorded” stand apart in the source; their conditions may differ."}
{"compound": "COc1cc(-c2cn(C)c(=O)c3cnccc23)c(OC)cc1CN(C)C", "note": "[BI-9564]", "values": [{"measurement": "rescue of HD neuruloids to the WT configuration", "setting": "[1]", "value": "rescue HD neuruloids to the WT configuration"}, {"measurement": "hit call in panel of BRD inhibitors (rescue efficacy above and toxicity below threshold)", "setting": "[1]", "value": "did not score positively"}, {"measurement": "HTT levels reduction ability (expanded HTT and total HTT)", "setting": "[2]; 56CAG and 72CAG neuruloids", "value": "no HTT reduction ability"}, {"measurement": "potency (EC50) in rescuing HD neuruloids", "setting": "[3]", "value": "sub-micromolar"}]}
{"compound": "CCn1cc(-c2cccc(C(F)(F)F)c2)c2sc(C(=N)NC3CCS(=O)(=O)CC3)cc2c1=O", "note": "[I-BRD9]", "values": [{"measurement": "rescue of HD neuruloids to the WT configuration", "setting": "[1]", "value": "rescue HD neuruloids to the WT configuration"}, {"measurement": "potency (EC50) in rescuing HD neuruloids", "setting": "[3]", "value": "sub-micromolar"}]}
{"compound": "COc1cc(-c2cn(C)c(=O)c3cnccc23)cc(OC)c1CN(C)CC(=O)NCCOCCOCCNc1cccc2c1C(=O)N(C1CCC(=O)NC1=O)C2=O", "note": "(stereo not shown) [dBRD9]", "values": [{"measurement": "rescue of HD neuruloids to the WT configuration", "setting": "[1]", "value": "rescue HD neuruloids to the WT configuration"}, {"measurement": "toxic profile relative to Bromosporine", "setting": "[4]; dose-dependent test, FIG. 9B", "value": "lower than Bromosporine"}, {"measurement": "HTT levels reduction ability (expanded HTT and total HTT)", "setting": "[2]; 56CAG and 72CAG neuruloids", "value": "no HTT reduction ability"}, {"measurement": "SOX17+ area at the periphery of HD gastruloids", "setting": "[5]", "value": "significant reduction of the SOX17+ area"}, {"measurement": "potency (EC50) in rescuing HD neuruloids", "setting": "[3]", "value": "sub-micromolar"}]}
{"compound": "COc1cc(-c2cn(C)c(=O)c3cnccc23)cc(OC)c1CN(C)C", "note": "[BI-7273]", "values": [{"measurement": "rescue of HD neuruloids to the WT configuration", "setting": "[1]", "value": "rescue HD neuruloids to the WT configuration"}, {"measurement": "hit call in panel of BRD inhibitors (rescue efficacy above and toxicity below threshold)", "setting": "[1]; listed as B17273", "value": "high enough efficacy while keeping a low toxicity and scores positively and hit"}, {"measurement": "HTT levels reduction ability (expanded HTT and total HTT)", "setting": "[2]; 56CAG and 72CAG neuruloids", "value": "no HTT reduction ability"}, {"measurement": "SOX17+ area at the periphery of HD gastruloids", "setting": "[5]", "value": "significant reduction of the SOX17+ area"}, {"measurement": "potency (EC50) in rescuing HD neuruloids", "setting": "[3]", "value": "sub-micromolar"}]}
{"compound": "CCOC(=O)Nc1cc(-c2ccc(C)c(NS(C)(=O)=O)c2)nn2c(C)nnc12", "note": "[Bromosporine]", "values": [{"measurement": "rescue of HD neuruloid phenotype, primary screen images", "setting": "[1]", "value": "reversal of the HD phenotype towards the WT configuration"}, {"measurement": "rescue of HD neuruloid phenotype, primary screen images", "setting": "[1]; listed as bromosporine", "value": "rescues the HD neuruloids phenotype"}, {"measurement": "rescue of HD neuruloids to the WT configuration", "setting": "[1]", "value": "rescue HD neuruloids to the WT configuration"}, {"measurement": "phenotypic rescue", "setting": "[1]; primary screen, 10 uM, HD neuruloids, AI score 0 = disease, 1 = WT, hit >0.95", "value": 0.98}, {"measurement": "concentrations at which a toxic response started to occur", "setting": "[4]; WT and HD-56CAG neuruloids", "value": "above 1 μM"}, {"measurement": "toxicity in the window of concentration", "setting": "[4]; between 0.3 μM and 1 μM", "value": "low toxicity"}, {"measurement": "toxicity score", "setting": "[4]; primary screen, 10 uM, HD neuruloids, toxic signature >3", "value": 1.93}, {"measurement": "HTT levels reduction ability (expanded HTT and total HTT)", "setting": "[2]; 56CAG and 72CAG neuruloids", "value": "reduced both expanded HTT and total HTT levels; also recorded: has HTT lowering activity"}, {"measurement": "reduction of expanded HTT levels", "setting": "[2]; 1 μM, 56CAG and 72CAG neuruloids", "value": "more than 50%"}, {"measurement": "reduction of expanded HTT levels", "setting": "[2]; 5 μM, all backgrounds (56CAG and 72CAG neuruloids)", "value": "more than 75%"}, {"measurement": "SOX17+ area at the periphery of HD gastruloids", "setting": "[5]", "value": "significant reduction of the SOX17+ area"}, {"measurement": "rescue of HD phenotype, hit validation in small-scale experiment", "setting": "[3]; 0.5 μM, staining SOX10, PAX6, N-CAD, qualitative", "value": "rescue of the disorganization induced by the HD gene; also recorded: rescued the HD phenotype"}, {"measurement": "EC50", "setting": "[3]; Homo sapiens, dose response, 10 concentrations in triplicates, read-out: EC50 rescuing the neuruloids HD-56CAG phenotype", "value": 120, "unit": "nM"}, {"measurement": "concentration at which fully effective", "setting": "[3]; dose response, HD neuruloids", "value": "around 300 nM"}, {"measurement": "potency (EC50) in rescuing HD neuruloids", "setting": "[3]", "value": "sub-micromolar"}]}
